The values below come from patent US20080255181A1, “Methods for treating podocyte-related disorders” (University of Heidelberg, priority 2006, published 2008).

The subject of experiment [1] is intracellular proteins. As to the kind of experiment: Activation of intracellular proteins in podocytes by calcimimetic. The class given is cell-based, mouse. Particulars: 4 nmol/l. The source says: (§1) A well established cell model of conditionally immortalized murine podocytes was used to determine the impact of calcimimetics on podocyte function. These immortalized podocyte cell lines were generated from the Inmortomouse® (Charles River, Wilmington, Mass., USA) carrying a temperature-sensitive T-antigen as transgene, under the control of an interferon-γ inducible promoter. […]
(§2) Protein extraction from cultured podocytes and SDS-PAGE were done as previously described (Weins et al., supra). Total and phosphorylated proteins were detected by Western blotting as described previously, using the following primary antibodies: Bad (dilution 1:1000), pBad (1:1000), Bax (1:1000), Bid (1:1000), Bcl-xl (1:500), CREB (1:4000), ERK1/2 (1:4000), pERK 1/2 (1:4000), pJNK (1:1000), p38MAPK (1:500), p90RSK (1:2000) (Cell Signaling Technology, Beverly, Mass., USA), Bcl-2 (1:500), Caveolin-1 (1:500), 3-Actin (1:10000) (Abcam, Cambridge, UK) CaSR 1:100 (Alpha Diagnostics, San Antonio, Tex., USA). […]

Experiment [2] relates to ERK1/2. As to the kind of experiment: Western blotting of ERK1/2 phosphorylation in podocytes. The class given is cell-based, mouse. The source says: (§3) A well established cell model of conditionally immortalized murine podocytes was used to determine the impact of calcimimetics on podocyte function. These immortalized podocyte cell lines were generated from the Inmortomouse® (Charles River, Wilmington, Mass., USA) carrying a temperature-sensitive T-antigen as transgene, under the control of an interferon-γ inducible promoter. They were maintained cultured as previously described (Weins A et al. (2001) J Cell Biol 155: 393-404; Asanuma K. et al. (2005). J Clin Invest 115: 1188-1198. In brief, the cell line was maintained in RPMI 1640 (PAA Laboratories, Pasching, Austria) supplemented with 10% fetal bovine serum (PAA Laboratories, Pasching, Austria), 100 U/ml penicillin/streptomycin (Biochrom AG, Berlin, Germany) in humidified incubators with air-5% CO2. In order to induce differentiation, podocytes were grown on collagen type I (BD Bioscience, Bedford, Mass., USA) under permissive conditions at 33° C. with IFN-γ (10 U/ml) (Roche, Mannheim, Germany) or under non-permissive conditions at 37° C. without IFN-γ for at least 10 days.
Protein extraction from cultured podocytes and SDS-PAGE were done as previously described (Weins et al., supra). Total and phosphorylated proteins were detected by Western blotting as described previously, using the following primary antibodies: Bad (dilution 1:1000), pBad (1:1000), Bax (1:1000), Bid (1:1000), Bcl-xl (1:500), CREB (1:4000), ERK1/2 (1:4000), pERK 1/2 (1:4000), pJNK (1:1000), p38MAPK (1:500), p90RSK (1:2000) (Cell Signaling Technology, Beverly, Mass., USA), Bcl-2 (1:500), Caveolin-1 (1:500), 3-Actin (1:10000) (Abcam, Cambridge, UK) CaSR 1:100 (Alpha Diagnostics, San Antonio, Tex., USA). Western blot analysis was carried out according to standard protocols and visualized using enhanced chemiluminescence (ECL) immunoblot detection kits (Amersham Biosciences, Little Chalfont Buckinghamshire, UK).
It has been established previously that the activation of the CaSR induces a variety of intracellular signalling pathways such as the protein kinase C(PKC) and the MAP kinase pathways.
In addition, U0126 suppressed the phosphorylation of CREB (FIG. 10). Blockade of MEK1/2 and MAP kinases can not be bypassed via activation of other pathways such as PKC.
A general note: In western blotting, separated proteins are transferred to a membrane and probed.

In experiment [3] the test system is BAD. As to the kind of experiment: Western blotting of BAD phosphorylation in podocytes. The class given is cell-based, mouse. The note with it: 10 nmol/l.
Text: as §1, §2

The test system of experiment [4] is Bcl-xL. As to the kind of experiment: Western blotting of Bcl-xL expression in podocytes. The class given is cell-based, mouse. Particulars: time-dependent, HCl.
Text: as §1, §2

Experiment [5] concerns podocytes genes. As to the kind of experiment: Microarray analysis of Compound A-dependent regulation of podocyte genes. The format is cell-based, mouse. The note with it: 10 nmol/l, 12 hrs.
The subject of experiment [6] is PAN-treated rats. As to the kind of experiment: Animal model of PAN nephrosis (proteinuria). The format is in vivo, rat. How it is done: Puromycin aminonucleoside (PAN), which induces oxidant injury in cells via the xanthine oxidase pathway, has been used extensively as a model of podocyte injury. Podocyte injury in this model can be ameliorated by inhibitors of oxidants. Following PAN injection (15 mg/100 g body weight), injury in the rat podocytes is manifest by loss of interdigitating foot processes, detachment from the GBM, pseudocyst formation, reduction in anionic charge, attenuation of the underlying GBM, and associated leakiness of the glomerular filter resulting in proteinuria. The PAN model also progresses to a patchy glomerular scarring process [focal glomerulosclerosis (FSGS)]. FSGS in humans is commonly associated with progression to end-stage renal disease (ESRD) requiring renal replacement therapy. […] Podocytes were stained against WT-1, a specific marker for podocytes and counted under an immunofluorescence microscope.
Male Sprague-Dawley rats weighing approximately 100 g were administered intraperitoneal PAN (Sigma Company, St. Louis, Mo., USA) at a dose of 15 mg/100 g body weight, or additionally at the same time a single injection of Compound A (doses 2 mg/100 g body weight) 4 hours before, or an equivalent volume of 0.9% saline (0.2-0.4 ml/animal) (N=10-15 animals per group). […] Protein/Creatinin ratio was measured with ADVIA 2400, Bayer Diagnostics. […]

In experiment [7] the test system is p90RSK. As to the kind of experiment: Western blotting of p90RSK phosphorylation in podocytes. The class given is cell-based, mouse. Particulars: 10 nmol/l, HCl.
Text: as §1, §2
(§4) This CREB activation is able to mediate signals from numerous physiological stimuli, resulting in the regulation of a broad array of cellular responses, such as regulating of apoptosis associated genes. Therefore downstream pro-survival factors were analyzed. […]

Experiment [8] relates to podocytes. As to the kind of experiment: FACS analysis of PAN-induced apoptosis of podocytes. The format is cell-based, mouse. The note with it: PAN 30 μg/ml; for reduction of PAN induced increase in apoptosis rate: Compound A 10 mmol/l as printed, p<0.05; for apoptosis rate of cultured podocytes: baseline less than 20% in controls.
Text: as §3
All cells were treated as described, then washed and trypsinized. All washes and eluted cells were collected, pooled, and centrifuged. After washing cells with Annexin-binding buffer, cells were incubated with FITC-labelled Annexin-V (Molecular Probes) and propidium iodide (Molecular Probes) for 30 min. Annexin-V binds phosphatidylserine, which is translocated to the outer cell membrane during the initial stages of apoptosis. Propidium iodide was also applied to cells in order to distinguish necrosis from apoptosis. Cells were analyzed by flow cytometry (FACScalibur, Becton Dickinson). Apoptosis-associated fluorescence was measured using a log scale. Cells with high propidium iodide content were necrotic and were excluded from the analysis.
This example summarizes the results of FACS analyses. […] PAN (30 μg/ml) increased apoptosis rate of cultured podocytes to 44 and 78% correspondingly after 48 and 60 hrs of incubation, as compared to a baseline apoptosis rate of less than 20% in respective controls (FIG. 11). Addition of Compound A (10 mmol/l) reduced PAN induced increase in apoptosis rate in three independent experiments by 55 and 60% after 48 and 60 hrs respectively (both p<0.05).

For experiment [9], the system named is BID. As to the kind of experiment: Western blotting of BID in podocytes. The format is cell-based, mouse. Particulars: Compound A exposure, HCl.
Text: as §1, §2

The test system of experiment [10] is p38 MAPK. As to the kind of experiment: Western blotting of p38 MAPK phosphorylation in podocytes. The format is cell-based, mouse. Particulars: 10 nmol/l, after 5 min and again after 30 and 60 min, HCl.
Text: as §1, §2

Experiment [11] relates to CREB. As to the kind of experiment: Western blotting of CREB phosphorylation in podocytes. The format is cell-based, mouse.
Text: as §3, §2, §4

Experiment [12] concerns JNK. As to the kind of experiment: Western blotting of JNK activation in podocytes. Particulars: any time-point, HCl. The format is cell-based, mouse.
Text: as §1, §2

The mark [13] stands for this setting: inhibitor 10 mM as printed, Compound A 10 nmol.

“Also recorded” adds a separate entry of the source.

`COc1cccc([C@@H](C)NCCCc2ccccc2Cl)c1.Cl` [Compound A, N-(3-[2-chlorophenyl]-propyl)-R-▪-methyl-3-methoxybenzylamine HCl]: the “activation of intracellular proteins” value in experiment [1] is “activation of intracellular proteins was demonstrated”. The “phosphorylation of ERK1/2” value in experiment [2] (4 to 50 nmol/l, dose- and time-dependent, HCl) was “phosphorylation of ERK1/2 occurs; also recorded: time and dose dependent phosphorylation”. Further, the “activation of ERK1/2” value in [2] (10 mol/l as printed, not further increased by higher concentrations) is “strong activation”. In experiment [2] (Compound A incubation), the “time of first detectable ERK1/2 phosphorylation steps” value was determined as 2 min and the “time of maximal ERK1/2 phosphorylation” value was determined as 10 min. Further, in experiment [3], the “amount of non-phosphorylated BAD” value is reported as “decreases”. In experiment [3] (time-dependent), the “amount of phosphorylated BAD” value is reported as “clearly increases”. The Bcl-xl expression result in experiment [4] is “induced in a time-dependent way; also recorded: increased expression”. Further, in experiment [5], the “CaSR-regulated genes/number of genes analyzed: Adherens junction” value was 11/62, the “CaSR-regulated genes/number of genes analyzed: Adhesion-extracellular matrix” value is listed as 14/84, the “CaSR-regulated genes/number of genes analyzed: Apoptosis” value was 9/72 and the “CaSR-regulated genes/number of genes analyzed: Cytokine receptor interactions” value is 29/187. For the same compound, in [5], the “CaSR-regulated genes/number of genes analyzed: Focal Adhesions” value is given as 30/174, the “CaSR-regulated genes/number of genes analyzed: MAPK signaling pathways” value is on record as 30/193, the “CaSR-regulated genes/number of genes analyzed: Nfkb signaling” value was 8/79 and the “CaSR-regulated genes/number of genes analyzed: Regulation of actin cytoskeleton” value is on record as 26/171. Also, in experiment [5], the “CaSR-regulated genes/number of genes analyzed: TGF beta signaling pathway” value is 9/62; the “CaSR-regulated genes/number of genes analyzed: Toll-like-receptor signaling” value is reported as 10/69; the “CaSR-regulated genes/number of genes analyzed: Wnt signaling pathways” value is 15/116; the “mRNA expression of pro-apoptotic genes calpain 1, calpain small subunit 1, caspase 7 and caspase 8” value is given as “down-regulated”. Moreover, in experiment [5], the “mRNA expression of pro-survival factor Bcl-2” value is recorded as “up-regulated”. In addition, the “genes significantly regulated out of 15000 genes investigated” value in [5] (vs untreated cells) stood at 10%. For the same compound, in [6] (male Sprague-Dawley rats, PAN 15 mg/100 g i.p., Compound A 2 mg/100 g body weight single injection, HCl), the “proteinuria in group receiving PAN and Compound A” value is “significant protection; also recorded: successfully impeded; also recorded: prevent the development of proteinuria”. The “proteinuria after a single dose, compared to untreated control rats receiving saline” value in experiment [6] (rats, after day 6, intraperitoneal) is listed as “significantly induced”. In experiment [7], the p90RSK phosphorylation entry is listed as “phosphorylated in a similar time pattern as ERK1/2; also recorded: induction”. Also, in [8] (Compound A 10 nmol/l, 48 h and 60 h), the “PAN induced apoptosis of podocytes (FIG. 11 legend)” value was “prevents”. In addition, in experiment [8] (48 hrs), the “reduction of PAN induced increase in apoptosis rate” value was determined as 55%. Further, the “reduction of PAN induced increase in apoptosis rate” value in [8] (60 hrs) is 60%. Also, the BID entry in experiment [9] is “not affected; also recorded: not influenced”. Further, in experiment [10], the “p38 MAPK phosphorylation” value was “clear biphasic response pattern; also recorded: biphasic phosphorylation”. Further, the CREB phosphorylation result in experiment [11] (10 nmol/l, HCl) is recorded as “leads to CREB phosphorylation; also recorded: induction”. For the same compound, in experiment [12], the JNK activation entry is “no activation; also recorded: not activated”.

Take `N#CC(=C(/N)Sc1ccccc1N)/C(C#N)=C(\N)Sc1ccccc1N` [Compound U0126, reference compound]: in experiment [2] (inhibitor 10 μM), the “Compound A-induced phosphorylation of ERK1/2 in presence of MEK1/2 inhibitor” value was “abolish completely”. Moreover, in experiment [2] (setting [13]), the “calcimimetic-induced phosphorylation of ERK 1/2 in presence of inhibitor (FIG. 10 legend)” value is recorded as “strongly inhibits”. Also, the “phosphorylation of CREB in presence of MEK1/2 inhibitor” value in experiment [11] (inhibitor 10 μM) was “suppressed”. Moreover, the “calcimimetic-induced phosphorylation of CREB in presence of inhibitor (FIG. 10 legend)” value in experiment [11] (setting [13]) is “strongly inhibits”.

As to `CN(C)c1ncnc2c1ncn2[C@@H]1O[C@H](CO)[C@@H](N)[C@H]1O` [PAN, puromycin aminonucleoside, reference compound], the “apoptosis rate of cultured podocytes” value stood at 44% in experiment [8] (48 hrs of incubation) and 78% in [8] (60 hrs of incubation).
